“Also recorded” adds a separate entry of the source. Blank lines part the entries; values can stand above or below the substance they belong to.
Experiments:
[1] = cited from earlier work
Description: In fact, the role of both the N- and C-terminals of α-MSH in binding to different MCR subtypes has been shown, with the C-terminal being essential for MC4R recognition. Thus hiding of the C-terminal by IgG in OB patients appears as a negative modulator of α-MSH/IgG IC activation of MC4R. […] 12–13 of the α-MSH C-terminal have also been detected in narcolept ...

[2] = test system: human MC4R; experiment: cAMP production by MC4R-expressing HEK 293 cells; format: cell-based; conditions: AgRP 100 nM, 45 min preincubation or co-administered; n = 2/group
[3] = biological target: human melanocortin 4 receptor (human) (UniProt P32245); experiment: SPR; BIAcore 1000; hMC4R-expressing HEK 293 cells coated on the biosensor surface; analyte α-MSH in immune complex with IgG from obese patients; Langmuir 1:1 fit after blank subtraction
human melanocortin 4 receptor (human), sequence (P32245 whole entry): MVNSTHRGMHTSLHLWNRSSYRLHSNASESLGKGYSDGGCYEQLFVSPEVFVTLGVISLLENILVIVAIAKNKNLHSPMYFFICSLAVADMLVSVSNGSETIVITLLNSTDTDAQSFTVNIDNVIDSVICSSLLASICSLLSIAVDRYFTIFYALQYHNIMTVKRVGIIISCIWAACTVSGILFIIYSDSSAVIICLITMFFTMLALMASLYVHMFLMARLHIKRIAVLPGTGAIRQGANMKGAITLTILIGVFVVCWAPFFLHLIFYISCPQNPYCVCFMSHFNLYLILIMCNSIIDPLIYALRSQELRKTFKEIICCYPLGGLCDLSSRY

[4] = biological target: human melanocortin 4 receptor (human) (UniProt P32245)
[5] = test system: wild-type C57Bl/6 mice; experiment: Food intake in wild-type mice after IP α-MSH; format: in vivo, mouse; conditions: α-MSH 100 µg/kg IP, beginning of dark phase; vs basal food intake; n = 6
Protocol: Rag^−/− mice (n = 6), bred in a specific-pathogen-free area, were generously provided by Professor Olivier Boyer and a person, Inserm 1234, Rouen. Rag^−/− and C57Bl/6 male mice were individually housed in BioDaq® cages (Research Diets Inc., New Brunswick, NJ, USA) for 7 days, and the basal food intake of each animal was measured during the first 4 h of the dark phase. At day 8, IP injections of α-MSH (100 µg/kg, Bachem) were performed at the beginning of the dark phase. Individual food intake after injection was compared to the basal food intake of the pretreatment period.
Upon arrival into the animal facility, male C57Bl/6 mice (7 weeks – n=6) purchased from Janvier Labs and Rag^-/- mice (generated by the Inserm UMR905 laboratory in a specific-pathogen-free area, n=6) were housed in standard cages (3 mice per cage) in environmental conditions (23 ± 1 °C, 12:12 h light-dark cycle) with standard pellet rodent chow and water available ad libitum. After 7 days of acclimatization, animals were individually housed in BioDaq® cages (Research Diets Inc., New Brunswick, NJ, USA) that provide automatic food intake measurements. During 7 days, the basal food intake of each animal was measured during the first 4 hours of the dark phase. At day 8, intraperitoneal injections of a-MSH (100 µg/kg, Bachem) were performed at the beginning of the dark phase. […]

[6] = test system: control HEK 293 cells lacking MC4R; experiment: cAMP production by control HEK 293 cells lacking MC4R; conditions: 15 min at 23 °C
[7] = test system: male Sprague-Dawley rats; experiment: Food intake in rats after intra-PVN injection of α-MSH or α-MSH/IgG IC; format: in vivo, rat; conditions: intra-PVN 2 µL α-MSH 2.5 mg/mL; 12-h fasted rats; vs aCSF
Protocol: Animal care and experimentation were in accordance with guidelines established by the National Institutes of Health, French and European Community regulations (Official Journal of the European Community L 358, 18/12/1986) and the study was approved by a Regional Ethical Committee (Rouen, France). Sample sizes were selected based on previous experiments. Non-randomized male Sprague-Dawley rats were anesthetized by ketamine (75 mg/kg, Virbac, Carros, France)/xylazine (5 mg/kg, Bayer, Leverkusen, France) solution (3:1 vol., 0.1 mL/100 g, intraperitoneal (IP)) and were stereotaxically implanted with a 9-mm guide cannula (PlasticsOne, Roanoke, VA, USA) into the paraventricular nucleus (PVN). Upon awakening, rats were individually maintained in metabolic cages (Techniplast, Louviers, France) for 5–6 days. […] Food intake was measured 30 min and 2 h after injection.
Animal care and experimentation were in accordance with guidelines established by the National Institutes of Health, French and European Community regulations (Official Journal of the European Community L 358, 18/12/1986). […] Food intake was measured 30 min and 2 h after injection. […]

Substance: adrenocorticotropic hormone [ACTH]
functional activity when central part of ACTH is bound by IgG [1]: preserved its functional activity to stimulate cortisol secretion

Substance: agouti-related protein (SSRRCVRLHESCLGQQVPCCDPCATCYCRFFNAFCYCRKLGTAMNPCSRT; UniProt O00253 83-132, looked up) [AgRP]
antagonism of α-MSH- and α-MSH/IgG IC-induced cAMP production [2]: antagonized both α-MSH- and α-MSH/IgG IC-induced cAMP production

fold lower affinity than in IC with IgG from controls [3]: 10 fold
EC50 of cAMP release by hMC4R-expressing HEK 293 cells, IC formed by α-MSH and IgG from controls and ED patients, against free α-MSH [4]: 50%
Substance: α-melanocyte-stimulating hormone (peptide)

Substance: α-melanocyte-stimulating hormone [α-MSH]
4-h food intake in wild-type mice [5]: significantly reduced food intake
cAMP production by control HEK 293 cells lacking MC4R, in words [6]: no significant α-MSH-induced cAMP production; also recorded: did not observe cAMP production
anorexigenic effect, cumulative food intake at 30 min [7]: significant anorexigenic effect
anorexigenic effect, cumulative food intake at 120 min [7]: significant anorexigenic effect

— publication PMC6372612, “Immunoglobulin G modulation of the melanocortin 4 receptor signaling in obesity and eating disorders” (Translational Psychiatry, 2019)
